Source: article PMC3445454, “Broad and Cross-Clade CD4^+ T-Cell Responses Elicited by a DNA Vaccine Encoding Highly Conserved and Promiscuous HIV-1 M-Group Consensus Peptides” (PLoS ONE, 2012)
Positions count from the first letter of the chain named. Where two headings read alike, the source gives them in different places. Ends that are not written are not given here.

Assays:
Assay in all cases: biochemical
HLA-DR DRB1*01:01 = HLA-DR DRB1*01:01 (Homo sapiens, UniProt P01903+P01911, A100R/D57E/F55L/F60I/F76Y/I96L/L162R/M171V/P40L/Q125E/R42F/V115G/Y59C); type: binding
HLA-DR DRB1*04:01 = HLA-DR DRB1*04:01 (Homo sapiens, UniProt P01903+P01911, A100K/A169T/F76Y/I96L/K127E/L162R/M171V/N62H/P40V/Q125Y/R42H/S133A/S149N/S66Y/V115G/V209L/W38E); type: binding
HLA-DR DRB1*07:01 = HLA-DR DRB1*07:01 (Homo sapiens, UniProt P01903+P01911, A100R/A102G/A103Q/D57E/D86V/E43K/F76Y/K127E/L162R/M171V/P40G/Q125H/Q99D/R33Q/R42Y/R54Q/S133A/S66F/T210M/V115G/Y107V/Y59L/Y89S); type: binding
HLA-DR DRB1*08:02 = HLA-DR DRB1*08:02 (Homo sapiens, UniProt P01903+P01911, A100R/A103L/A169T/F76Y/H45Y/I96F/K41T/L162R/M171V/P40S/Q125H/Q178H/Q39Y/Q99D/R218S/R42G/S66Y/V115G/W38E); type: binding
HLA-DR DRB1*10:01 = HLA-DR DRB1*10:01 (Homo sapiens, UniProt P01903+P01911, A100R/A169T/D57E/F55L/F60V/F69Y/F76Y/I96L/L162R/M171V/P40V/Q260P/Q39E/Q99R/R195Q/R42F/S149N/S66Y/T210M/V115G/V67A/W38E/Y59R/Y61H); type: binding
HLA-DR DRB1*13:02 = HLA-DR DRB1*13:02 (Homo sapiens, UniProt P01903+P01911, A100E/A169T/K41T/L162R/M171V/P40S/Q125H/Q178H/Q39Y/Q99D/R42S/S66N/T262R/V115G/W38E/Y61H); type: binding
Sequence of HLA-DR DRB1*13:02 (P01903 26-254 limits assumed, other chains not shown): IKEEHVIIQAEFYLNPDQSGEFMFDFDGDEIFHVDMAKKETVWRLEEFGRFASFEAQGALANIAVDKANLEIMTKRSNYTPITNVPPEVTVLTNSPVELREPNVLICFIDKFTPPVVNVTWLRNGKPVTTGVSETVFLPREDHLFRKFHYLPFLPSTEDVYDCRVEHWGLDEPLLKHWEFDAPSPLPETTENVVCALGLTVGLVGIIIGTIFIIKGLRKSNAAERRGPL
HLA-DR DRB3*01:01 = HLA-DR DRB3*01:01 (Homo sapiens, UniProt P01903+P79483); type: binding
[1] = biological target: T1, HLA-DP DPA1*01:03/DPB1*03:01 (Homo sapiens, UniProt P04440+P20036, A65V/A84D/A85E/E86D/F38Y/G113D/G114E/G40L/I94L/L37V/M105V/M116V/P115A/R125K/T199I); type: binding
T1 sequence (P20036 29-260): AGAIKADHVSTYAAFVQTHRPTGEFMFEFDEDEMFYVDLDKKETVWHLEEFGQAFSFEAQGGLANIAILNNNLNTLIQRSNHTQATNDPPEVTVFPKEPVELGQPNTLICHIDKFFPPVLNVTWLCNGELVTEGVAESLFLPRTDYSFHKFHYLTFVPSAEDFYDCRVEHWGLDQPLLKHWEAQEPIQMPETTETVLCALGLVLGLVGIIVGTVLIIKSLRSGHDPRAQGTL
T1 sequence (P04440 30-258 L37V/F38Y/G40L/A65V/A84D/A85E/E86D/I94L/M105V/G113D/G114E/P115A/M116V/R125K/T199I): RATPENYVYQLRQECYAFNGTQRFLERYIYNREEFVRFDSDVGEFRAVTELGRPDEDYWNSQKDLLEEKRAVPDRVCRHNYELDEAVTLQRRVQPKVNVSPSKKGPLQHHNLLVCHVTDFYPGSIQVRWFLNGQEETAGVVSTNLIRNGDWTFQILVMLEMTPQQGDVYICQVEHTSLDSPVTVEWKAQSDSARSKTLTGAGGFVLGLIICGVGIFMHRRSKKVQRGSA

[2] = biological target: T2, HLA-DP DPA1*01:03/DPB1*20:01 (Homo sapiens, UniProt P04440+P20036, A65V/A84D/A85E/E86D/F38Y/G113D/G114E/G40L/I94L/L37V/M116V/P115A/R125K/T199I); type: binding
T2 sequence (P20036 29-260): T1 sequence (P20036 29-260)
T2 sequence (P04440 30-258 L37V/F38Y/G40L/A65V/A84D/A85E/E86D/I94L/G113D/G114E/P115A/M116V/R125K/T199I/V234M): T1 sequence (P04440 30-258 L37V/F38Y/G40L/A65V/A84D/A85E/E86D/I94L/M105V/G113D/G114E/P115A/M116V/R125K/T199I) with V76M, V205M

[3] = biological target: HLA-DP DPA1*02:01/DPB1*01:01 (Homo sapiens, UniProt P04440+P20036, F191V/F38Y/F64Y/G113D/G114E/K142R/L158P/L37V/M105V/M116V/M62Q/P115A/Q81R/R125K/R223Q/T114A/T199I/T259P)
Sequence of HLA-DP DPA1*02:01/DPB1*01:01 (P20036 29-260 A42M/M62Q/Q81R/T114A/K142R/L158P/F191V/T259P, other chains not shown): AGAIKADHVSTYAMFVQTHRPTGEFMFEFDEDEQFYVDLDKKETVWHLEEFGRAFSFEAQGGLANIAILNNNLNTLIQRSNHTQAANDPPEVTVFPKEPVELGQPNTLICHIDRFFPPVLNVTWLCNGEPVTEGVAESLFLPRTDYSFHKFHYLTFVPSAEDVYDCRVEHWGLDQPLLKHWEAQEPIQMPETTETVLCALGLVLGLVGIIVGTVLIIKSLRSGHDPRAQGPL

[4] = biological target: HLA-DP DPA1*03:01/DPB1*04:02 (Homo sapiens, UniProt P04440+P20036, A42M/A65V/A84D/A85E/L207M/L97S)
[5] = read-out: Binding capacity/IC50 (nM) DRB3*01:01
[6] = read-out: Binding capacity/IC50 (nM) DPA1*01:03 DPB1*20:01
[7] = read-out: Binding capacity/IC50 (nM) DRB1*01:01
[8] = read-out: Binding capacity/IC50 (nM) DRB1*04:01
[9] = read-out: Binding capacity/IC50 (nM) DRB1*07:01
[10] = read-out: Binding capacity/IC50 (nM) DRB1*08:02
[11] = read-out: Binding capacity/IC50 (nM) DRB1*10:01
[12] = read-out: Binding capacity/IC50 (nM) DRB1*13:02
[13] = read-out: Binding capacity/IC50 (nM) DPA1*01:03 DPB1*03:01

Molecule	IC50 (HLA-DR DRB1*01:01)	IC50 (HLA-DR DRB1*04:01)	IC50 (HLA-DR DRB1*07:01)	IC50 (HLA-DR DRB1*08:02)	IC50 (HLA-DR DRB1*10:01)	IC50 (HLA-DR DRB1*13:02)	IC50 (HLA-DR DRB3*01:01; [5])	IC50 [1]	IC50 [2, 6]	IC50 [3]	IC50 [4]	IC50 (HLA-DR DRB1*01:01; [7])	IC50 (HLA-DR DRB1*04:01; [8])	IC50 (HLA-DR DRB1*07:01; [9])	IC50 (HLA-DR DRB1*08:02; [10])	IC50 (HLA-DR DRB1*10:01; [11])	IC50 (HLA-DR DRB1*13:02; [12])	IC50 [1, 13]	IC50 (HLA-DR DRB3*01:01)	IC50 [2]
CSCC[C@H](NC(=O)[C@H](CCCCN)NC(=O)[C@H](C)NC(=O)[C@H](Cc1ccc(O)cc1)NC(=O)[C@H](CCCCN)NC(=O)CNC(=O)[C@@H](NC(=O)[C@H](CCCCN)NC(=O)[C@H](CC(C)C)NC(=O)[C@H](CC(N)=O)NC(=O)[C@H](CCCCN)NC(=O)[C@H](Cc1ccccc1)NC(=O)[C@@H]1CCCN1C(=O)[C@H](CCC(=O)O)NC(=O)[C@@H](N)CCC(N)=O)[C@@H](C)O)C(N)=O [RT(343-357)]	81 nM	591 nM	6210 nM	947 nM	19 nM	25000 nM	5610 nM	6510 nM	2790 nM	300 nM	4210 nM									
CC[C@H](C)[C@H](NC(=O)[C@H](CCCCN)NC(=O)[C@H](CCC(N)=O)NC(=O)[C@@H](NC(=O)[C@H](C)NC(=O)[C@H](CCC(=O)O)NC(=O)[C@@H](N)[C@@H](C)O)C(C)C)C(=O)N[C@@H](C)C(=O)N[C@H](C(=O)N[C@@H](CCC(=O)O)C(=O)N[C@@H](CO)C(=O)N[C@H](C(=O)N[C@H](C(=O)N[C@H](C(=O)N[C@@H](Cc1c[nH]c2ccccc12)C(=O)NCC(=O)N[C@@H](CCCCN)C(=O)N[C@H](C(=O)N1CCC[C@H]1C(=O)N[C@@H](CCCCN)C(=O)N[C@@H](Cc1ccccc1)C(=O)N[C@@H](CCCNC(=N)N)C(=O)N[C@@H](CC(C)C)C(N)=O)[C@@H](C)O)[C@@H](C)CC)C(C)C)[C@@H](C)CC)[C@@H](C)O [RT(369-391)]							6230 nM		972 nM	1540 nM	1740 nM	65 nM	146 nM	20 nM	24 nM	24 nM	1290 nM	5360 nM		
CC(C)C[C@H](NC(=O)[C@H](CCCCN)NC(=O)[C@@H](NC(=O)[C@H](CC(C)C)NC(=O)[C@@H]1CCCN1C(=O)[C@@H]1CCCN1C(=O)[C@@H](NC(=O)[C@H](CC(N)=O)NC(=O)[C@@H](NC(=O)[C@H](Cc1ccccc1)NC(=O)[C@H](CCC(=O)O)NC(=O)[C@H](Cc1c[nH]c2ccccc12)NC(=O)[C@@H](N)CCC(=O)O)C(C)C)[C@@H](C)O)C(C)C)C(=O)N[C@@H](Cc1c[nH]c2ccccc12)C(=O)N[C@@H](Cc1ccc(O)cc1)C(N)=O [RT(413-427)]	26 nM	42 nM	39 nM	58 nM	12 nM	2220 nM	2390 nM		1070 nM	101 nM	7 nM							5710 nM		
CC[C@H](C)[C@H](NC(=O)[C@@H]1CCCN1C(=O)[C@H](CCC(=O)O)NC(=O)[C@@H](N)CCCCN)C(=O)N[C@H](C(=O)NCC(=O)N[C@@H](C)C(=O)N[C@@H](CCC(=O)O)C(=O)N[C@H](C(=O)N[C@@H](Cc1ccccc1)C(=O)N[C@@H](Cc1ccc(O)cc1)C(=O)N[C@H](C(=O)N[C@@H](CC(=O)O)C(=O)NCC(=O)N[C@@H](C)C(N)=O)C(C)C)[C@@H](C)O)C(C)C [RT(431-445)]								28400 nM	26100 nM	205 nM	132 nM	5.1 nM	23 nM	75 nM	19 nM	4.4 nM	266 nM		13 nM	
CC[C@H](C)[C@H](NC(=O)CNC(=O)[C@H](CCCCN)NC(=O)[C@H](Cc1c[nH]cn1)NC(=O)[C@H](C)NC(=O)[C@@H]1CCCN1C(=O)[C@@H](NC(=O)[C@H](Cc1c[nH]c2ccccc12)NC(=O)[C@H](CO)NC(=O)[C@H](CC(C)C)NC(=O)[C@H](Cc1ccc(O)cc1)NC(=O)[C@@H](NC(=O)[C@H](CCCCN)NC(=O)[C@H](CCC(=O)O)NC(=O)[C@@H](N)CCCCN)C(C)C)C(C)C)C(=O)NCC(=O)NCC(=O)N[C@@H](CC(N)=O)C(=O)N[C@@H](CCC(=O)O)C(N)=O [RT(528-546)]								76 nM		585 nM	150 nM	16 nM	68 nM	6.3 nM					576 nM	6 nM
DEELLKAVRIIKILYQSNP-NH2 [rev(9-27)]							978 nM		202 nM	461 nM	5.8 nM	7.4 nM	13 nM	41 nM	9.5 nM	3.9 nM		466 nM		
